The values below are quoted from earlier work in patent publication US10004754B2, “ANP fragment adjuvant therapy to standard of care (SOC) diuretic treatment” (MADELEINE PHARMACEUTICALS PTY LTD, priority 2014, dated 2018).

For this data set, the system named is ADCHF patients. Particulars: cited from earlier work.

“nesiritide: A recombinant form of human BNP, approved by the FDA for the treatment of ADCHF”: the “diuresis in ADCHF patients” value (Gottlieb, 2013) is “does not increase diuresis”. In addition, the “patient mortality or re-hospitalisation rate” value (O'Conner et al., 2011) is reported as “not associated with a change”.
